43 compounds from patent US9290457B2, “Substituted dihydropyrimidinones and their use as inhibitors of neutrophil elastase activity” (Boehringer Ingelheim International GmbH, priority 2014, dated 2016) can be followed below.

Each structure is given as a SMILES string.

This test deals with neutrophil elastase (Homo sapiens (Human), UniProt P08246). Put plainly: Human Neutrophil Elastase Assay. It is filed as biochemical. Particulars: substrate MeOSuc-Ala-Ala-Pro-Val-AMC. On the procedure: Human Neutrophil Elastase Assay
Chain of neutrophil elastase (P08246 30-247): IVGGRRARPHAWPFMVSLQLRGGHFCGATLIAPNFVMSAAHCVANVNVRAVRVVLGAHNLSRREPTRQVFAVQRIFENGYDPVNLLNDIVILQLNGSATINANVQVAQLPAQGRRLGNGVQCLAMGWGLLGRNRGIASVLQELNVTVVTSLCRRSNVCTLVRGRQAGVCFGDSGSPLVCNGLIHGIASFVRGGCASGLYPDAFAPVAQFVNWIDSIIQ
All other materials were of the highest grade commercially available.
The following buffers were used: Compound buffer: 100 mM Tris, 500 mM NaCl, adjusted to pH 7.5; Assay buffer: 100 mM Tris, 500 mM NaCl, adjusted to pH 7.5, containing 0.01% BSA.
Assay conditions: Test compounds were prediluted in DMSO and subsequently in compound buffer (5% DMSO final). […] After inactivation of the enzyme, fluorescence intensities were measured at 380 nm excitation and 460 nm emission wavelengths.
Each plate contains wells with a high value control (DMSO+enzyme+substrate) and wells with a low value control (DMSO+inactivated enzyme+substrate). IC50 values were estimated using a sigmoidal concentration response curve with variable slope. Means of low values were taken as 0%, means of high values as 100%.
As for `CC(=O)C1=C(C)N(c2cccc(C(F)(F)F)c2)C(=O)N(C)C1c1ccc(C#N)cc1C(N)=O` (stereo not shown) [Example 1, 2-[5-Acetyl-3,6-dimethyl-2-oxo-1-(3-trifluoromethyl-phenyl)-1,2,3,4-tetrahydro-pyrimidin-4-yl]-5-cyano-benzamide], the IC50 was less than 1 nM.
`CNC(=O)c1cc(C#N)ccc1C1C(C(C)=O)=C(C)N(c2cccc(C(F)(F)F)c2)C(=O)N1C` (stereo not shown) [Example 1.1]: the IC50 was less than 1 nM.
`CC(=O)C1=C(C)N(c2cccc(C(F)(F)F)c2)C(=O)N(C)C1c1ccc(C#N)cc1C(=O)N(C)C` (stereo not shown) [Example 1.2]: the IC50 was less than 1 nM.
Under `CC(=O)C1=C(C)N(c2cccc(C(F)(F)F)c2)C(=O)N(C)C1c1ccc(C#N)cc1C(=O)N1CCOCC1` (stereo not shown) [Example 1.3] stands 2.25 nM.
Under `CCNC(=O)c1cc(C#N)ccc1C1C(C(C)=O)=C(C)N(c2cccc(C(F)(F)F)c2)C(=O)N1C` (stereo not shown) [Example 1.4] stands less than 1 nM.
Next, `C#CCNC(=O)c1cc(C#N)ccc1C1C(C(C)=O)=C(C)N(c2cccc(C(F)(F)F)c2)C(=O)N1C` (stereo not shown) [Example 1.5]: less than 1 nM; `CC(=O)C1=C(C)N(c2cccc(C(F)(F)F)c2)C(=O)N(C)C1c1ccc(C#N)cc1C(=O)N1CCC1` (stereo not shown) [Example 1.7]: less than 1 nM; `CC(=O)C1=C(C)N(c2cccc(C(F)(F)F)c2)C(=O)N(C)C1c1ccc(C#N)cc1C(=O)NCCO` (stereo not shown) [Example 1.9]: less than 1 nM.
For the compound `CC(=O)C1=C(C)N(c2cccc(C(F)(F)F)c2)C(=O)N(C)C1c1ccc(C#N)cc1C(=O)N1CCCC1` (stereo not shown) [Example 1.11], the IC50 is less than 1 nM.
The compound `CC(=O)C1=C(C)N(c2cccc(C(F)(F)F)c2)C(=O)N(C)C1c1ccc(C#N)cc1C(=O)N1CC(O)C1` (stereo not shown) [Example 1.12] displayed an IC50 of less than 1 nM.
Next, `CC(=O)C1=C(C)N(c2cccc(C(F)(F)F)c2)C(=O)N(C)C1c1ccc(C#N)cc1C(=O)NC1COC1` (stereo not shown) [Example 1.13]: less than 1 nM; `CC(=O)C1=C(C)N(c2cccc(C(F)(F)F)c2)C(=O)N(C)C1c1ccc(C#N)cc1C(=O)N(C)CCO` (stereo not shown) [Example 1.14]: less than 1 nM.
Under `COCCNC(=O)c1cc(C#N)ccc1C1C(C(C)=O)=C(C)N(c2cccc(C(F)(F)F)c2)C(=O)N1C` (stereo not shown) [Example 1.15] stands less than 1 nM; under `CC(=O)C1=C(C)N(c2cccc(C(F)(F)F)c2)C(=O)N(C)C1c1ccc(C#N)cc1C(=O)NCCCO` (stereo not shown) [Example 1.16], less than 1 nM; under `CC(=O)C1=C(C)N(c2cccc(C(F)(F)F)c2)C(=O)N(C)C1c1ccc(C#N)cc1C(=O)NCC(F)F` (stereo not shown) [Example 1.17], less than 1 nM.
Compound `CC(=O)C1=C(C)N(c2cccc(C(F)(F)F)c2)C(=O)N(C)C1c1ccc(C#N)cc1C(=O)NC12CC(C1)C2` (stereo not shown) [Example 1.18] gave an IC50 of 1 nM.
Under `CC(=O)C1=C(C)N(c2cccc(C(F)(F)F)c2)C(=O)N(C)C1c1ccc(C#N)cc1C(=O)NC1CCOC1` (stereo not shown) [Example 1.19] stands less than 1 nM; under `COCCCNC(=O)c1cc(C#N)ccc1C1C(C(C)=O)=C(C)N(c2cccc(C(F)(F)F)c2)C(=O)N1C` (stereo not shown) [Example 1.20], less than 1 nM.
Under `COCCN(C)C(=O)c1cc(C#N)ccc1C1C(C(C)=O)=C(C)N(c2cccc(C(F)(F)F)c2)C(=O)N1C` (stereo not shown) [Example 1.21] stands less than 1 nM.
Turning to `CC(=O)C1=C(C)N(c2cccc(C(F)(F)F)c2)C(=O)N(C)C1c1ccc(C#N)cc1C(=O)NCC(F)(F)F` (stereo not shown) [Example 1.23], the IC50 is less than 1 nM.
Compound `CC(=O)C1=C(C)N(c2cccc(C(F)(F)F)c2)C(=O)N(C)C1c1ccc(C#N)cc1C(=O)NC1CCOCC1` (stereo not shown) [Example 1.24] registered an IC50 of less than 1 nM.
`CC(=O)C1=C(C)N(c2cccc(C(F)(F)F)c2)C(=O)N(C)C1c1ccc(C#N)cc1C(=O)NC1CCC(O)C1` (stereo not shown) [Example 1.25] gave an IC50 of 1.1 nM.
Under `CC(=O)C1=C(C)N(c2cccc(C(F)(F)F)c2)C(=O)N(C)C1c1ccc(C#N)cc1C(=O)N1CCC(O)CC1` (stereo not shown) [Example 1.26] stands 4.7 nM; under `COCCCN(C)C(=O)c1cc(C#N)ccc1C1C(C(C)=O)=C(C)N(c2cccc(C(F)(F)F)c2)C(=O)N1C` (stereo not shown) [Example 1.27], less than 1 nM.
Turning to `CC(=O)C1=C(C)N(c2cccc(C(F)(F)F)c2)C(=O)N(C)C1c1ccc(C#N)cc1C(=O)NC1CCN(C)CC1` (stereo not shown) [Example 1.28], the IC50 was less than 1 nM.
`CC(=O)C1=C(C)N(c2cccc(C(F)(F)F)c2)C(=O)N(C)C1c1ccc(C#N)cc1C(=O)NCCS(C)(=O)=O` (stereo not shown) [Example 1.29] came in with an IC50 of less than 1 nM.
Consider `CC(=O)C1=C(C)N(c2cccc(C(F)(F)F)c2)C(=O)N(C)C1c1ccc(C#N)cc1C(=O)N(C)Cc1cnn(C)c1` (stereo not shown) [Example 1.30], for which the IC50 was less than 1 nM.
In the case of `CC(=O)C1=C(C)N(c2cccc(C(F)(F)F)c2)C(=O)N(C)C1c1ccc(C#N)cc1C(=O)NC1CCS(=O)(=O)C1` (stereo not shown) [Example 1.31], the IC50 is less than 1 nM.
`CC(=O)C1=C(C)N(c2cccc(C(F)(F)F)c2)C(=O)N(C)C1c1ccc(C#N)cc1C(=O)NC1(C#N)CC1` (stereo not shown) [Example 1.32] displayed an IC50 of less than 1 nM.
Next, `CC(=O)C1=C(C)N(c2cccc(C(F)(F)F)c2)C(=O)N(C)C1c1ccc(C#N)cc1C(=O)NC(C)(C)C#N` (stereo not shown) [Example 1.33]: 1.8 nM; `CC(=O)C1=C(C)N(c2cccc(C(F)(F)F)c2)C(=O)N(C)C1c1ccc(C#N)cc1C(=O)NCc1ccoc1` (stereo not shown) [Example 1.34]: less than 1 nM; `CC(=O)C1=C(C)N(c2cccc(C(F)(F)F)c2)C(=O)N(C)C1c1ccc(C#N)cc1C(=O)NCc1ccco1` (stereo not shown) [Example 1.35]: less than 1 nM.
Next, `CC(=O)C1=C(C)N(c2cccc(C(F)(F)F)c2)C(=O)N(C)C1c1ccc(C#N)cc1C(=O)NCc1cn[nH]c1` (stereo not shown) [Example 1.36]: less than 1 nM.
Under `CC(=O)C1=C(C)N(c2cccc(C(F)(F)F)c2)C(=O)N(C)C1c1ccc(C#N)cc1C(=O)NCc1ncco1` (stereo not shown) [Example 1.37] stands less than 1 nM.
`CC(=O)C1=C(C)N(c2cccc(C(F)(F)F)c2)C(=O)N(C)C1c1ccc(C#N)cc1C(=O)NCc1ccno1` (stereo not shown) [Example 1.38] registered an IC50 of less than 1 nM.
Take `CC(=O)C1=C(C)N(c2cccc(C(F)(F)F)c2)C(=O)N(C)C1c1ccc(C#N)cc1C(=O)NCc1cnoc1` (stereo not shown) [Example 1.39]: the IC50 is less than 1 nM.
Under `CC(=O)C1=C(C)N(c2cccc(C(F)(F)F)c2)C(=O)N(C)C1c1ccc(C#N)cc1C(=O)NCc1cnco1` (stereo not shown) [Example 1.40] stands less than 1 nM; under `CC(=O)C1=C(C)N(c2cccc(C(F)(F)F)c2)C(=O)N(C)C1c1ccc(C#N)cc1C(=O)NCc1ccon1` (stereo not shown) [Example 1.41], less than 1 nM.
Next, `CC(=O)C1=C(C)N(c2cccc(C(F)(F)F)c2)C(=O)N(C)C1c1ccc(C#N)cc1C(=O)NCc1cocn1` (stereo not shown) [Example 1.42]: less than 1 nM; `CC(=O)C1=C(C)N(c2cccc(C(F)(F)F)c2)C(=O)N(C)C1c1ccc(C#N)cc1C(=O)NC1CCN(C)C1` (stereo not shown) [Example 1.43]: less than 1 nM; `CC(=O)C1=C(C)N(c2cccc(C(F)(F)F)c2)C(=O)N(C)C1c1ccc(C#N)cc1C(=O)N(C)CCN(C)C` (stereo not shown) [Example 1.44]: less than 1 nM.
`CC(=O)C1=C(C)N(c2cccc(C(F)(F)F)c2)C(=O)N(C)C1c1ccc(C#N)cc1C(=O)NCc1ccccc1` (stereo not shown) [Example 1.45] displayed an IC50 of 1 nM.
Under `CC(=O)C1=C(C)N(c2cccc(C(F)(F)F)c2)C(=O)N(C)C1c1ccc(C#N)cc1C(=O)NCc1ccccn1` (stereo not shown) [Example 1.46] stands less than 1 nM.
